Values of other authors in patent publication US20100260859A1 (ELAN PHARMA INTERNATIONAL LIMITED, priority 2009, published 2010).

established intrinsic solubility of clozapine in water: 16 µg/mL
solubility in water (in words): very slightly soluble in water
Compound: CN1CCN(C2=Nc3cc(Cl)ccc3Nc3ccccc32)CC1 [Clozapine, 8-chloro-11-(4-methylpiperazin-1-yl)-5H-dibenzo[b,e][1,4]diazepine]
